Measured values published in PMC9386913 (Arthritis Research & Therapy, 2022).

Key:
[1] = test system: THP-1 cells; experiment: In vitro tachyphylaxis model: daily treatment of THP-1 cells, LPS-stimulated TNF; details: up to 14 days, 0.1 or 1 μM CC-99677 or 1 μM p38 inhibitors
[2] = test system: c-Jun N-terminal kinase (JNK); details: THP-1 cells, macrophages, and synoviocytes; cited from earlier work
[3] = test system: LPS-induced TNF; parameters: method as in PMID 29549113; details: mouse model of NOMID, up to 4 weeks after dosing; cited from earlier work
[4] = test system: TNF; parameters: method as in PMID 26904383; details: similar assay and clinical study design; no reference printed, BCT197 paper is ref 53; cited from earlier work

CCCNC(=O)c1cn2ncnc(Nc3cc(C(=O)NC4CC4)ccc3C)c2c1C [BMS-582949]
LPS-stimulated TNF production under continued daily treatment [1]: beginning on day 9, loss of TNF inhibitory effect

Cc1ccc(-n2nc(C(C)(C)C)cc2NC(=O)Nc2ccc(OCCN3CCOCC3)c3ccccc23)cc1 [BIRB-796]
LPS-stimulated TNF production under continued daily treatment [1]: beginning on day 9, loss of TNF inhibitory effect

C[C@@H]1CN(Cc2ccc(F)cc2)[C@@H](C)CN1C(=O)c1cc2c(C(=O)C(=O)N(C)C)cn(C)c2cc1Cl [SCIO-469]
LPS-stimulated TNF production under continued daily treatment [1]: beginning on day 9, loss of TNF inhibitory effect

O=c1ncn2nc(Sc3ccc(F)cc3F)ccc2c1-c1c(Cl)cccc1Cl [VX-745]
Activation of c-Jun N-terminal kinase (JNK) upon treatment [2]: activation of c-Jun N-terminal kinase (JNK)

O=C(CO)N1CCC(c2[nH]nc(-c3ccc(Cl)cc3)c2-c2ccncn2)CC1 [CDD-111]
Inhibition of LPS-induced TNF [3]: did not

Cc1ccc(C(=O)NC2CC2)cc1-n1ncc(C(=O)c2cccc(C#N)c2)c1N [BCT197]
Sustained TNF inhibition over treatment period [4]: loss of effect

Cc1cnc(-c2ccnc(C(C)(C)O)n2)cc1-n1c(C)cc(OCc2ncc(F)cc2F)c(Cl)c1=O [ATI-450]
Inhibition of LPS-induced TNF [3]: showed inhibition of LPS-induced TNF for up to 4 weeks after dosing

C[S+]([O-])c1ccc(-c2nc(-c3ccncc3)c(-c3ccc(F)cc3)[nH]2)cc1 (centres unmarked) [SB203580]
Activation of c-Jun N-terminal kinase (JNK) upon treatment [2]: activation of c-Jun N-terminal kinase (JNK)
